PMC7294809, “Discovery of an Allosteric Binding Site in Kinetoplastid Methionyl-tRNA Synthetase” (ACS Infectious Diseases, 2020)
Values after ≈ are worked out from the molar mass of the structure shown. Like-named read-outs stand apart in the source and are kept apart here. Marks after values point to notes of the source that are not given here.

What was measured:
LdMetRS [1] = target: T1, LdMetRS (Leishmania donovani, UniProt A0A3Q8IBX2); assay: LdMetRS BIOMOL Green biochemical assay, 10-point dose response
CHI LogD measurement = type: physicochemical
Procedure: CHI LogD measurements were performed as described elsewhere.[29] cLogP measurements were calculated using StarDrop (Optibrium).

TcMetRS [2] = target: T2, TcMetRS (Trypanosoma cruzi, UniProt Q4D6H2); assay: TcMetRS BIOMOL Green biochemical assay, 10-point dose response; conditions: for Emax: read-out: TcMetRS Maximum % Inhibition; for TcMetRS Maximum % Inhibition Plateau: Table 3, plateau of dose-response curve
[3] = Aqueous solubility, filtration-based method; type: physicochemical; conditions: phosphate-buffered saline pH 7.4, 24 h, 25 °C; for solubility at 24 h: aqueous buffer, kinetic from dmso stock
Procedure: Solubility was assessed using a filtration-based method. Test compounds were dissolved in DMSO to give 10 mM solutions. Five microliters of the 10 mM solution was added to 195 μL of phosphate-buffered saline at pH 7.4 and mixed for 24 h (rotary mixing, 900 rpm, 25 °C) excluding light. After mixing, the samples were filtered to remove any undissolved material using a Millipore Multiscreen HTS filter. The filtrate was analyzed for dissolved drug compounds using UHPLC.

TcMetRS [4] = target: T2, TcMetRS; assay: TcMetRS mode of inhibition studies; type: biochemical; conditions: TcMetRS, fit to eq 7, ± SE of fit
Description: It was therefore feasible to perform TcMetRS mode inhibition studies with this compound. These studies, carried out as previously described for LdMetRS, confirm a best fit to the same partial, cooperative, noncompetitive inhibition model (eq 7; Supporting Information Figure 6 and Table 4).
(§1) Using GraFit v6.0 (Erithacus Software), each data set was globally fitted to standard competitive, uncompetitive, and noncompetitive inhibition models (eqs 3–5).
(§2) Equation 5 (noncompetitive inhibition model): [drawing 5] 5 On the basis of poor data fits to the above models, partial inhibition and cooperativity parameters were introduced into the uncompetitive and noncompetitive models as previously described by Skovpen et al.[30],[31] Mode of inhibition data were globally fitted to these modified equations (eqs 6 and 7).
(§3) Equation 7 (cooperative, noncompetitive, partial inhibition model): [drawing 7] 7 v is the velocity, Vmax is the maximum velocity, [S] is the substrate concentration, [I] is the inhibitor concentration, Ki is the inhibitor constant, Ks is the substrate dissociation constant, n is the substrate Hill slope, h is the inhibitor Hill slope, and β is the proportionality constant (fraction of activity remaining when the enzyme is fully saturated with inhibitor).
(§4) If more than one model appeared possible, then data were fitted to both and examined for significance using the F-test function in GraFit.

LdMetRS [5] = target: T1, LdMetRS; assay: LdMetRS mode of inhibition studies; type: biochemical; conditions: for Ki / h (inhibitor Hill slope) / β (fraction of activity remaining) / Vmax / n (substrate Hill slope) / Ks: LdMetRS; for Ki: fit to eq 7, ± SE of fit; for Vmax: global fit parameter; for n (substrate Hill slope) / Ks: global fit; for Ks: substrate dissociation constant
Description: Subsequent full mode of inhibition studies with compounds from the MetRS02 series were more challenging due to the partial inhibition profiles of some compounds resulting in poor global fits to the standard competitive, uncompetitive, and noncompetitive inhibition models (eqs 3, 4, and 5, respectively). In addition, during the enzymatic characterization of methionine binding to LdMetRS, a Hill slope of <1 was obtained (and was hypothesized to be due to conformational selection).[6] This low Hill slope is also not factored into the standard inhibition models described (eqs 3–5). New models with additional parameters to account for the partial inhibition and low methionine Hill slope were therefore required (eqs 6 and 7). Using these modified equations, the mode of inhibition of compound 27 was carried out by testing LdMetRS enzyme activity under varying substrate concentrations at various inhibitor concentrations (Figure 5). The cooperative, noncompetitive, partial inhibition model (eq 7) was confirmed as the best fit (using F-test analyses), with a noncompetitive mode of inhibition consistent with binding in an allosteric binding pocket. The returned fit parameters are shown in Table 4 and are presented with the standard error (SE) of the fit to eq 7.
as §1, §2, §3, §4

[6] = 50 μM methionine, 100 μM ATP, 50 nM LdMetRS, pIC50 = −log IC50 (M), read-out: LdMetRS pIC50 (converted)
[7] = plateau of dose-response curve, 50 μM methionine, 100 μM ATP, read-out: LdMetRS Maximum % Inhibition Plateau
[8] = chromatography (chromatographic hydrophobicity index)
[9] = Table 2, 50 μM methionine, 100 μM ATP, read-out: LdMetRS Maximum % Inhibition
[10] = chromatographic hydrophobicity index
[11] = 50 μM methionine, 100 μM ATP, 80 nM TcMetRS, read-out: TcMetRS pIC50 (converted)

T2 sequence (Q4D6H2 entry or part of it): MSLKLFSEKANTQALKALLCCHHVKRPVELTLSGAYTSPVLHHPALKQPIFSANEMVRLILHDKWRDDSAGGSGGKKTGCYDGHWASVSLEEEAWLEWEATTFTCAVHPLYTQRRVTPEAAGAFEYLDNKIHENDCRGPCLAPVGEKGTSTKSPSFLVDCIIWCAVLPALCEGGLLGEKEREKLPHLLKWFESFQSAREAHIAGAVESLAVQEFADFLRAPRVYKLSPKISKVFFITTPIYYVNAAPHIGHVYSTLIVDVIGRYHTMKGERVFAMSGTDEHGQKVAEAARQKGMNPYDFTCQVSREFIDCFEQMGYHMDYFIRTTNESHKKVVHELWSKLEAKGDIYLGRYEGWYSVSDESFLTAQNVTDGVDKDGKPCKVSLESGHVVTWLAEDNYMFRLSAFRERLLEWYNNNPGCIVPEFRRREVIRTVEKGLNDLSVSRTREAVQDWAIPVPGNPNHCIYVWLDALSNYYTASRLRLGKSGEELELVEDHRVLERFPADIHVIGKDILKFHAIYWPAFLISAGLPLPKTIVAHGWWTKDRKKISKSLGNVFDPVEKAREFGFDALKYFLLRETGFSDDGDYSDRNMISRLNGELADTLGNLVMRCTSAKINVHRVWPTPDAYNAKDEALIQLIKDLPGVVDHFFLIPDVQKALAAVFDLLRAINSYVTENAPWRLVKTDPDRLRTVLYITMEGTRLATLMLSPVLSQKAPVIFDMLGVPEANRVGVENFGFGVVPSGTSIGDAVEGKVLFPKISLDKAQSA
T1 sequence (A0A3Q8IBX2 entry or part of it): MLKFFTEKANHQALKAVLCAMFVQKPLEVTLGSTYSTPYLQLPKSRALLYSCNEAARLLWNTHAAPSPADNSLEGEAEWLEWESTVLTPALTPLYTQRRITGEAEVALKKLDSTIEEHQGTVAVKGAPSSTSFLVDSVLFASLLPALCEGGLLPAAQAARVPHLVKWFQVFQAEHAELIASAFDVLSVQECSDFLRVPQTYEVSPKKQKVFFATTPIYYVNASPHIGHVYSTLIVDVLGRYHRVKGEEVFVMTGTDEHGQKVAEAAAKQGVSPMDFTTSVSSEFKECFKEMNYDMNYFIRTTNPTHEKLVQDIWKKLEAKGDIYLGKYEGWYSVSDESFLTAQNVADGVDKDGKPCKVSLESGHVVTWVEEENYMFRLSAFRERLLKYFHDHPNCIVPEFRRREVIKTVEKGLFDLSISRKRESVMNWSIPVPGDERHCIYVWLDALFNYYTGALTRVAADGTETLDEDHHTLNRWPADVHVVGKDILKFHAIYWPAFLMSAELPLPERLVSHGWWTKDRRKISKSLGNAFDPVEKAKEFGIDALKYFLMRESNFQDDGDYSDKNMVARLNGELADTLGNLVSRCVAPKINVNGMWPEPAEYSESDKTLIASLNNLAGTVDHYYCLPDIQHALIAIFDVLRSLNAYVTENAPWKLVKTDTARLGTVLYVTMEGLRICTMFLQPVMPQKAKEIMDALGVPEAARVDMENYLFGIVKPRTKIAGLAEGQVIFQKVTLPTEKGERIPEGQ

| IC50 (LdMetRS [1]; [6]) [M] | Emax (LdMetRS [1]; [7]) [%] | chromatographic logD (CHI LogD measurement; [10]) | IC50 (TcMetRS [2]; [11]) [µM] | solubility at 24 h [3] [µM] | SMILES | also measured |
| --- | --- | --- | --- | --- | --- | --- |
| 7.94e-06 | 89.5 |  |  |  | Cn1ncc2c(NCCO)nc(Nc3ccc(Cl)cc3)nc21 [Compound 1] |  |
| 2.51e-05 | 94.2 |  |  |  | Cn1ncc2c(NCCO)nc(Nc3ccc(F)cc3)nc21 [Compound 2] | chromatographic logD (CHI LogD measurement; [8]): 1.32 |
| 1.26e-05 | 94.7 |  |  |  | Cn1ncc2c(NCCO)nc(Nc3cccc(Cl)c3)nc21 [Compound 3] | chromatographic logD (CHI LogD measurement; [8]): 1.82 |
| 3.16e-05 | 83.7 |  |  |  | Cn1ncc2c(NCCO)nc(Nc3cccc(F)c3)nc21 [Compound 4] | chromatographic logD (CHI LogD measurement; [8]): 1.48 |
| 1.26e-05 | 98.7 |  |  |  | Cn1ncc2c(NCCO)nc(Nc3ccc(F)c(F)c3)nc21 [Compound 5] | chromatographic logD (CHI LogD measurement; [8]): 1.64 |
| 1.26e-05 | 102 |  |  |  | Cn1ncc2c(NCCO)nc(Nc3ccc(F)cc3F)nc21 [Compound 6] |  |
| > 0.0001 |  |  |  |  | COc1ccc(Nc2nc(NCCO)c3cnn(C)c3n2)cc1Cl [Compound 7] |  |
| > 0.0001 |  | 1.74 | > 100 |  | Cn1ncc2c(NCCO)nc(NC3CCCCC3)nc21 [Compound 8] | Emax (LdMetRS [1]; [9]): 11.1%; Emax (TcMetRS [2]; 50 μM methionine, 100 μM ATP): 16.3% |
| > 0.0001 |  | 0.04 | > 100 |  | Cn1ncc2c(NCCO)nc(NC3CCOCC3)nc21 [Compound 9] | Emax (LdMetRS [1]; [9]): 17.3%; Emax (TcMetRS [2]; 50 μM methionine, 100 μM ATP): 15% |
| > 0.0001 |  | 1.49 | > 100 |  | Cn1ncc2c(NCCO)nc(N3CCCCC3)nc21 [Compound 10] | Emax (LdMetRS [1]; [9]): 10.8%; Emax (TcMetRS [2]; 50 μM methionine, 100 μM ATP): 13.6% |
| > 0.0001 |  | 0.63 | > 100 |  | CC(C)Nc1nc(NCCO)c2cnn(C)c2n1 [Compound 11] | Emax (LdMetRS [1]; [9]): 5.3%; Emax (TcMetRS [2]; 50 μM methionine, 100 μM ATP): 6.3% |
| > 0.0001 |  | 1.51 | > 100 |  | CN(c1cccc(F)c1)c1nc(NCCO)c2cnn(C)c2n1 [Compound 12] | Emax (LdMetRS [1]; [9]): 10.2%; Emax (TcMetRS [2]; 50 μM methionine, 100 μM ATP): 11.7% |
| > 0.0001 |  |  | > 100 |  | COc1cc(Nc2nc(NCCO)c3cnn(C)c3n2)ccc1F [Compound 14] | Emax (LdMetRS [1]; [9]): 36.8%; Emax (TcMetRS [2]; 50 μM methionine, 100 μM ATP): 4.9% |
| > 0.0001 |  |  | > 100 |  | CC(C)Oc1cc(Nc2nc(NCCO)c3cnn(C)c3n2)ccc1F [Compound 15] | Emax (LdMetRS [1]; [9]): 6.9%; Emax (TcMetRS [2]; 50 μM methionine, 100 μM ATP): 5.4% |
| > 0.0001 |  |  | > 100 |  | CC(C)Cc1cc(Nc2nc(NCCO)c3cnn(C)c3n2)ccc1F [Compound 16] | Emax (LdMetRS [1]; [9]): 17.1%; Emax (TcMetRS [2]; 50 μM methionine, 100 μM ATP): 15.4% |
| > 0.0001 |  | 3.82 | > 100 | 0.38 (≈ 0.148 µg/mL) | Cn1ncc2c(Nc3ccc(F)c(F)c3)nc(Nc3ccc(F)c(F)c3)nc21 [Compound 17] |  |
| 6.31e-06 | 98.7 | 2.31 | > 100 | 58 (≈ 16.8 µg/mL) | CNc1nc(Nc2ccc(F)c(F)c2)nc2c1cnn2C [Compound 18] |  |
| 2.51e-06 | 69.9 | 1.99 | > 100 | 2.4 (≈ 0.802 µg/mL) | CN(CCO)c1nc(Nc2ccc(F)c(F)c2)nc2c1cnn2C [Compound 20] |  |
| 6.31e-06 | 99.7 | 2.49 | > 100 | 23.3 (≈ 7.79 µg/mL) | COCCNc1nc(Nc2ccc(F)c(F)c2)nc2c1cnn2C [Compound 21] |  |
| 3.98e-06 | 61 | 2.5 | > 100 |  | Cn1ncc2c(NC3CCCCC3O)nc(Nc3ccc(F)c(F)c3)nc21 (stereo not drawn) [Compound 22] |  |
| 7.94e-06 | 65.4 | 2.45 | > 100 | 0.59 (≈ 0.213 µg/mL) | Cn1ncc2c(NC3CCOCC3)nc(Nc3ccc(F)c(F)c3)nc21 [Compound 23] |  |
| > 0.0001 |  | 3.93 | > 100 | 0.46 (≈ 0.158 µg/mL) | Cn1ncc2c(N3CCCCC3)nc(Nc3ccc(F)c(F)c3)nc21 [Compound 24] | LdMetRS pIC50 (LdMetRS [1]; 50 μM methionine, 100 μM ATP, 50 nM LdMetRS, pIC50 = −log IC50 (M)): inactive |
| 7.94e-06 | 87.7 | 2.43 | > 100 | 6.1 (≈ 2.2 µg/mL) | Cn1ncc2c(N3CCC[C@H]3CO)nc(Nc3ccc(F)c(F)c3)nc21 [Compound 25] |  |
| 2e-05 | 68.9 | 1.38 | > 100 | 201 (≈ 69.8 µg/mL) | CNC(=O)CNc1nc(Nc2ccc(F)c(F)c2)nc2c1cnn2C [Compound 26] |  |
| 6.31e-06 | 68.7 |  | > 100 | 0.72 (≈ 0.268 µg/mL) | Cc1noc(CNc2nc(Nc3ccc(F)c(F)c3)nc3c2cnn3C)n1 [Compound 28] |  |
| 7.94e-07 | 100 | 6.22 | 10 | 39.1 (≈ 15.3 µg/mL) | COC(=O)[C@H](Nc1nc(Nc2ccc(F)c(F)c2)nc2c1cnn2C)C(C)C [Compound 29] | TcMetRS Maximum % Inhibition Plateau (TcMetRS [2]): 51.5% |
| 1.26e-06 | 102 | 3.78 | 39.8 | 29.8 (≈ 11.3 µg/mL) | COC(=O)[C@@H](CO)Nc1nc(Nc2ccc(F)c(F)c2)nc2c1cnn2C [Compound 30] | TcMetRS Maximum % Inhibition Plateau (TcMetRS [2]): 93.3% |
| 2e-07 | 100 | 3.63 | 2 | 128 (≈ 54.8 µg/mL) | COC(=O)C(Cc1c[nH]cn1)Nc1nc(Nc2ccc(F)c(F)c2)nc2c1cnn2C (stereo not drawn) [Compound 31] | LdMetRS Maximum % Inhibition Plateau (LdMetRS [1]; plateau of dose-response curve, 50 μM methionine, 100 μM ATP): full inhibition; Aqueous Solubility [3]: good solubility |
| 7.94e-07 | 94.7 | 4.91 | > 100 |  | COC(=O)C1(Nc2nc(Nc3ccc(F)c(F)c3)nc3c2cnn3C)CC1 [Compound 32] |  |

| SMILES | IC50 (LdMetRS [1]; [6]) [M] | Emax (LdMetRS [1]; [7]) [%] | chromatographic logD (CHI LogD measurement; [10]) | IC50 (TcMetRS [2]; [11]) [µM] | solubility at 24 h [3] [µM] | also measured |
| --- | --- | --- | --- | --- | --- | --- |
| CN(C)c1nc(Nc2ccc(F)c(F)c2)nc2c1cnn2C [Compound 19] |  |  | 2.88 |  | 4.8 (≈ 1.46 µg/mL) | IC50 (LdMetRS [1]; LdMetRS pIC50, 50 μM methionine, 100 μM ATP, 50 nM LdMetRS, pIC50 = −log IC50 (M)): 1e-06 M; Emax (LdMetRS [1]; read-out: LdMetRS Maximum % Inhibition Plateau): 48.9%; IC50 (TcMetRS [2]): > 100 µM; Ki (TcMetRS [4]; varied substrate ATP): inactive; Ki (TcMetRS [4]; varied substrate methionine): inactive; Ki (LdMetRS [5]; varied substrate ATP): 1.21 ± 0.06 µM; Ki (LdMetRS [5]; varied substrate methionine): 1.22 ± 0.06 µM; h (inhibitor Hill slope) (LdMetRS [5]; substrate ATP, eq 7): 1.75 ± 0.12; β (fraction of activity remaining) (LdMetRS [5]; substrate ATP, eq 7): 0.55 ± 0.01; Vmax (LdMetRS [5]; substrate ATP, eq 7): 0.292 ± 0.004 μM Piformed/min; n (substrate Hill slope) (LdMetRS [5]; substrate ATP, eq 7): 1.03 ± 0.03 ^b; Ks (LdMetRS [5]; substrate ATP, eq 7): 21.0 ± 0.74 µM; h (inhibitor Hill slope) (LdMetRS [5]; substrate methionine, eq 7): 1.65 ± 0.11; β (fraction of activity remaining) (LdMetRS [5]; substrate methionine, eq 7): 0.57 ± 0.01; Vmax (LdMetRS [5]; substrate methionine, eq 7): 0.359 ± 0.009 μM Piformed/min; n (substrate Hill slope) (LdMetRS [5]; substrate methionine, eq 7): 0.53 ± 0.02; Ks (LdMetRS [5]; substrate methionine, eq 7): 313 ± 35 µM; mode of inhibition, LdMetRS (LdMetRS [5]; best fit by F-test, eq 7): noncompetitive |
